This is an account of results in US12559506B2, “Indazole based compounds and associated methods of use” (Arvinas Operations, Inc., priority 2021, dated 2026).

The assay deals with T1, LRRK2 (endogenous, HiBit tagged) (Homo sapiens, UniProt Q5S007).
T1 construct: endogenous in cells; host or cells: HEK293 cells with HiBit knock-in at the endogenous LRRK2 locus, stably expressing firefly luciferase
Briefly: Endogenous LRRK2 degradation assay, endogenous gene C-terminally HiBit-tagged in HEK293 cells (Nano-Glo Dual Luciferase). The assay is classed as cell-based. Conditions: endogenous HiBit-tagged LRRK2 in HEK293 cells, 24 hours treatment. Put shortly:
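LRRK2-HiBit quantified via Nano-Glo Dual Luciferase in HEK293 knock-in cells co-expressing firefly luciferase, after 24 h exposure to compound (1 μM final top, 1:3, 11 points). Values normalised to DMSO median per plate and curve-fitted; Alamar Blue viability run alongside.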

Where [1] appears, read: read-out: **Endogenous WT Dmax (%).

Where two headings read alike, the source gives them in different places.

T1 sequence (Q5S007 whole entry): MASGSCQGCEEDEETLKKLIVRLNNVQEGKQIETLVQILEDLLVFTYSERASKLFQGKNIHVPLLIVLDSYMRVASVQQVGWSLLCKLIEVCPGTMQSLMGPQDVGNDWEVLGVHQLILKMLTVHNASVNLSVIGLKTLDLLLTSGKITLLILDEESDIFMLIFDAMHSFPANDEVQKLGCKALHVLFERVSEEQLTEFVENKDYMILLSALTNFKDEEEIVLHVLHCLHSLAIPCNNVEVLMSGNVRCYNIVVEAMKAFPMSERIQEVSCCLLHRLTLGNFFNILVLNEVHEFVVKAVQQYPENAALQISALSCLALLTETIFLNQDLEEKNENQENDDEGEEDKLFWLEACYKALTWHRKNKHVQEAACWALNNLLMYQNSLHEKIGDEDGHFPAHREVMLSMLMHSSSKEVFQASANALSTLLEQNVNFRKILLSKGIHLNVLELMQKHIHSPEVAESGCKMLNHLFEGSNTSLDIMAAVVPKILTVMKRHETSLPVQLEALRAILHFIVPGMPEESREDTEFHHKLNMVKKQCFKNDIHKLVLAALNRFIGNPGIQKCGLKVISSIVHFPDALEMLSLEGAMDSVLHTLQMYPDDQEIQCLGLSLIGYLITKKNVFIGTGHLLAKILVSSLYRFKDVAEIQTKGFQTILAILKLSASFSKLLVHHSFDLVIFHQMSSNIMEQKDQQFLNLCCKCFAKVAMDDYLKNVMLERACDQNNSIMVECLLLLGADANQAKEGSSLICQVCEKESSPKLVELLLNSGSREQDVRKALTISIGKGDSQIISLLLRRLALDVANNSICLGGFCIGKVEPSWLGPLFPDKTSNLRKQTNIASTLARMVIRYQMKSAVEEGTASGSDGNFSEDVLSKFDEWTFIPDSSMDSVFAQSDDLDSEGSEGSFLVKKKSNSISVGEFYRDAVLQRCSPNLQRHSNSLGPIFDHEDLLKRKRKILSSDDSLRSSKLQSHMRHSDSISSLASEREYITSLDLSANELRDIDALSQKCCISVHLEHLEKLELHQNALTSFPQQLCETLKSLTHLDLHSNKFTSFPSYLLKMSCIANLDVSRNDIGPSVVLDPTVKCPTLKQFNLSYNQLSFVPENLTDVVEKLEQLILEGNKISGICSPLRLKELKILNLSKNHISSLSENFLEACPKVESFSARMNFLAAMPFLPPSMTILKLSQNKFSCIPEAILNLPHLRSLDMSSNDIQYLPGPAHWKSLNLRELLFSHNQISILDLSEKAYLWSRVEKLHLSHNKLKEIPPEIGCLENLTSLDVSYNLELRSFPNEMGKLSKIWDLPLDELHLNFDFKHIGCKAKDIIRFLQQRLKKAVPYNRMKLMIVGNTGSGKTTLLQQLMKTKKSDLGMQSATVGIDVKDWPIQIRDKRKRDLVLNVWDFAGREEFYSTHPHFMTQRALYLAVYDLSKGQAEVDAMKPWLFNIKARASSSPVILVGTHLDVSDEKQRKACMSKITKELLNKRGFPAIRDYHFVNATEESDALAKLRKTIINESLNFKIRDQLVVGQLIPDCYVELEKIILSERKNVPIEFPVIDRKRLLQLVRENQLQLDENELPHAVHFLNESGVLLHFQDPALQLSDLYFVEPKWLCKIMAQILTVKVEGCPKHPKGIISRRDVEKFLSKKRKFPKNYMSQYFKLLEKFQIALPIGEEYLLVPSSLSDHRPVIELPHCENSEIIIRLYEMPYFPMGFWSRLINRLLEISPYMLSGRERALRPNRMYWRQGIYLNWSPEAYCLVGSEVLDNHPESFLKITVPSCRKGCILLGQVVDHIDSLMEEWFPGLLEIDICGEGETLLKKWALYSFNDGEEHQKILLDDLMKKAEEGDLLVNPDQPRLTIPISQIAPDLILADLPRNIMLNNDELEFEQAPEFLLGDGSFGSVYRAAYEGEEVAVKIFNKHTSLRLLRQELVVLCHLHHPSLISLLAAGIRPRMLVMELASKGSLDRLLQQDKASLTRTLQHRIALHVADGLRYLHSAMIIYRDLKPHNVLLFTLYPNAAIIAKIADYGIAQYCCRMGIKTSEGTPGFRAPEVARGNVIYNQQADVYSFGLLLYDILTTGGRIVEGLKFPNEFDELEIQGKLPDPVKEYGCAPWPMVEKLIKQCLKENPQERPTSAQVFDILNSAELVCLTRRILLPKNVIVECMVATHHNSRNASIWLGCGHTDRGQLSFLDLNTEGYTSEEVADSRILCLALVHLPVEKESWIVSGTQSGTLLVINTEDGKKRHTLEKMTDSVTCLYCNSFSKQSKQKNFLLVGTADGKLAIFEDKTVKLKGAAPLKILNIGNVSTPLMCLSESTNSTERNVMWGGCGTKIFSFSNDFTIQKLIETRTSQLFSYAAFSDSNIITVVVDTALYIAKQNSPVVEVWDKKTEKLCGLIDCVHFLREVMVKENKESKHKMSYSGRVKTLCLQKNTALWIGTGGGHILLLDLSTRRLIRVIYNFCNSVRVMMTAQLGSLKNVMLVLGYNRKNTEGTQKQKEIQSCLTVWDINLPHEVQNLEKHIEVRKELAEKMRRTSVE

Turning to `CC1(Oc2ccc3[nH]nc(-c4cc(N5CCN(C[C@H]6CC[C@H](OC7CCN(c8c(F)cc9c(c8F)CN(C8CCC(=O)NC8=O)C9=O)CC7)CC6)CC5)ncn4)c3c2)CC1` (stereo partly drawn) [Compound 286, 3-[4,6-difluoro-1-oxo-5-(4-{[(1r,4r)-4-[(4-{6-[5-(1-methylcyclopropoxy)-1H-indazol-3-yl]pyrimidin-4-yl}piperazin-1-yl)methyl]cyclohexyl]oxy}piperidin-1-yl)-2,3-dihydro-1H-isoindol-2-yl]piperidine-2,6-dione], under setting [1], the Dmax – broadly, the greatest extent of degradation seen – was ≥ 70%. Moreover, the DC50 – broadly, the midpoint of the concentration-degradation curve – (read-out: *Endogenous WT DC50) lay in the range of 10 to 50 nM.

`CC1(Oc2ccc3[nH]nc(-c4cc(N5CCC(CC6(F)CCN(CC7CCN(c8c(F)cc9c(c8F)CN(C8CCC(=O)NC8=O)C9=O)CC7)CC6)CC5)ncn4)c3c2)CC1` (stereo not drawn) [Compound 223, 3-{4,6-difluoro-5-[4-({4-fluoro-4-[(1-{6-[5-(1-methylcyclopropoxy)-1H-indazol-3-yl]pyrimidin-4-yl}piperidin-4-yl)methyl]piperidin-1-yl}methyl)piperidin-1-yl]-1-oxo-2,3-dihydro-1H-isoindol-2-yl}piperidine-2,6-dione]: the DC50 (read-out: Endogenous WT DC50) fell in the range of 10 to 50 nM. Further, the Dmax (read-out: Endogenous WT Dmax) lay in the range of 50 to 70%.

`CC1(Oc2cc3c(-c4cc(N5CCC(CN6CCN(CC7CCN(c8ccc9c(c8F)CN(C8CCC(=O)NC8=O)C9=O)CC7)CC6(C)C)CC5)ncn4)n[nH]c3cc2F)CC1` (stereo not drawn) [Compound 274, 3-{4-fluoro-5-[4-({4-[(1-{6-[6-fluoro-5-(1-methylcyclopropoxy)-1H-indazol-3-yl]pyrimidin-4-yl}piperidin-4-yl)methyl]-3,3-dimethylpiperazin-1-yl}methyl)piperidin-1-yl]-1-oxo-2,3-dihydro-1H-isoindol-2-yl}piperidine-2,6-dione]: under setting [1], the Dmax is 50 to 70%. For the same compound, the DC50 (read-out: *Endogenous WT DC50) was < 10 nM.

Turning to `CC1(Oc2ccc3n[nH]c(-c4cc(N5CC6(CCN([C@H]7C[C@H](OC8CCN(c9ccc%10c(c9F)CN(C9CCC(=O)NC9=O)C%10=O)CC8)C7)CC6)C5)ncn4)c3c2)CC1` (stereo partly drawn) [Compound 304, 3-(4-fluoro-1-oxo-5-{4-[(1r,3r)-3-(2-{6-[5-(1-methylcyclopropoxy)-2H-indazol-3-yl]pyrimidin-4-yl}-2,7-diazaspiro[3.5]nonan-7-yl)cyclobutoxy]piperidin-1-yl}-2,3-dihydro-1H-isoindol-2-yl)piperidine-2,6-dione], the Dmax under setting [1] is 50 to 70%. Under “read-out: *Endogenous WT DC50”, the DC50 is < 10 nM.

In the case of `CC1(Oc2ccc3[nH]nc(-c4ccnc(N5CCN(C[C@H]6CC[C@H](OC7CCN(c8ccc9c(c8F)CN(C8CCC(=O)NC8=O)C9=O)CC7)CC6)CC5)c4)c3c2)CC1` (stereo partly drawn) [Compound 358, 3-[4-fluoro-1-oxo-5-(4-{[(1r,4r)-4-[(4-{4-[5-(1-methylcyclopropoxy)-1H-indazol-3-yl]pyridin-2-yl}piperazin-1-yl)methyl]cyclohexyl]oxy}piperidin-1-yl)-2,3-dihydro-1H-isoindol-2-yl]piperidine-2,6-dione], the DC50 (read-out: Endogenous WT DC50) was < 10 nM. The Dmax (read-out: Endogenous WT Dmax) is 50 to 70%.

`COc1c(N2CCC(O[C@H]3CC[C@H](CN4CCN(c5cc(-c6n[nH]c7ccc(OC8(C)CC8)cc67)ncn5)C[C@@H]4C)CC3)CC2)ccc2c1CN(C1CCC(=O)NC1=O)C2=O` (stereo partly drawn) [Compound 366, 3-[4-methoxy-1-oxo-5-(4-{[(1r,4r)-4-{[(2S)-2-methyl-4-{6-[5-(1-methylcyclopropoxy)-1H-indazol-3-yl]pyrimidin-4-yl}piperazin-1-yl]methyl}cyclohexyl]oxy}piperidin-1-yl)-2,3-dihydro-1H-isoindol-2-yl]piperidine-2,6-dione]: where the note is “read-out: Endogenous WT DC50”, the DC50 was < 10 nM. Moreover, where the note is “read-out: Endogenous WT Dmax”, the Dmax lay within 50 to 70%.

As to `COc1c(N2CCC(CN3CC[C@@H](OC4CCN(c5cc(-c6n[nH]c7ccc(OC8(C)CC8)cc67)ncn5)CC4)CC3(C)C)CC2)ccc2c1CN(C1CCC(=O)NC1=O)C2=O` (stereo partly drawn) [Compound 319, 3-(5-(4-(((R)-2,2-dimethyl-4-((1-(6-(5-(1-methylcyclopropoxy)-1H-indazol-3-yl)pyrimidin-4-yl)piperidin-4-yl)oxy)piperidin-1-yl)methyl)piperidin-1-yl)-4-methoxy-1-oxoisoindolin-2-yl)piperidine-2,6-dione], the Dmax under setting [1] is 50 to 70%. For the same compound, the DC50 (read-out: *Endogenous WT DC50) was < 10 nM.

On to `CC1(Oc2ccc3[nH]nc(-c4cc(N5CCC(CN6CCN(CC7CCN(c8c(F)cc9c(c8F)CN(C8CCC(=O)NC8=O)C9=O)CC7)CC6)CC5)ncn4)c3c2)CC1` (stereo not drawn) [Compound 219, 3-[4,6-difluoro-5-[4-[[4-[[1-[6-[5-(1-methylcyclopropoxy)-1H-indazol-3-yl]pyrimidin-4-yl]-4-piperidyl]methyl]piperazin-1-yl]methyl]-1-piperidyl]-1-oxo-isoindolin-2-yl]piperidine-2,6-dione], for which the 50% degradation concentration (DC50) (read-out: Endogenous WT DC50) was < 10 nM. Further, the Dmax (read-out: Endogenous WT Dmax) lay within 50 to 70%.

`COc1c(N2CCC(CN3CCN(CC4CCN(c5cc(-c6n[nH]c7cnc(OC8(C)CC8)cc67)ncn5)CC4)C(C)(C)C3)CC2)ccc2c1CN(C1CCC(=O)NC1=O)C2=O` (stereo not drawn) [Compound 250, 3-{5-[4-({3,3-dimethyl-4-[(1-{6-[5-(1-methylcyclopropoxy)-1H-pyrazolo[3,4-c]pyridin-3-yl]pyrimidin-4-yl}piperidin-4-yl)methyl]piperazin-1-yl}methyl)piperidin-1-yl]-4-methoxy-1-oxo-2,3-dihydro-1H-isoindol-2-yl}piperidine-2,6-dione]: under “read-out: Endogenous WT DC50”, the DC50 is < 10 nM. For the same compound, the Dmax (read-out: Endogenous WT Dmax) was in the range of 50 to 70%.

For `CC1(Oc2ccc3[nH]nc(-c4cc(N5CCC(CCN6CCC7(CN(c8ccc9c(c8F)CN(C8CCC(=O)NC8=O)C9=O)C7)C(F)(F)C6)CC5)ncn4)c3c2)CC1` (stereo not drawn) [Compound 376, 3-(5-{5,5-difluoro-7-[2-(1-{6-[5-(1-methylcyclopropoxy)-1H-indazol-3-yl]pyrimidin-4-yl}piperidin-4-yl)ethyl]-2,7-diazaspiro[3.5]nonan-2-yl}-4-fluoro-1-oxo-2,3-dihydro-1H-isoindol-2-yl)piperidine-2,6-dione], the 50% degradation concentration (DC50) (read-out: Endogenous WT DC50) was < 10 nM. In addition, the Dmax (read-out: Endogenous WT Dmax) was 50 to 70%.

For `CC1(Oc2ccc3[nH]nc(-c4cc(N5CCC(O[C@H]6CC[C@H](CN7CCN(c8ccc9c(c8F)CN(C8CCC(=O)NC8=O)C9=O)CC7(C)C)CC6)CC5)ncn4)c3c2)CC1` (stereo partly drawn) [Compound 361, 3-[5-(3,3-dimethyl-4-{[(1r,4r)-4-[(1-{6-[5-(1-methylcyclopropoxy)-1H-indazol-3-yl]pyrimidin-4-yl}piperidin-4-yl)oxy]cyclohexyl]methyl}piperazin-1-yl)-4-fluoro-1-oxo-2,3-dihydro-1H-isoindol-2-yl]piperidine-2,6-dione], the DC50 (read-out: Endogenous WT DC50) was < 10 nM. Besides, under “read-out: Endogenous WT Dmax”, the Dmax was in the range of 50 to 70%.

Consider `COc1c(N2CCC(CN3CCN(CC4CCN(c5cc(-c6n[nH]c7cc(F)c(OC8(C)CC8)cc67)ncn5)CC4)CC3(C)C)CC2)ccc2c1CN(C1CCC(=O)NC1=O)C2=O` (stereo not drawn) [Compound 279, 3-{5-[4-({4-[(1-{6-[6-fluoro-5-(1-methylcyclopropoxy)-1H-indazol-3-yl]pyrimidin-4-yl}piperidin-4-yl)methyl]-2,2-dimethylpiperazin-1-yl}methyl)piperidin-1-yl]-4-methoxy-1-oxo-2,3-dihydro-1H-isoindol-2-yl}piperidine-2,6-dione], for which, under setting [1], the Dmax was ≥ 70%. The DC50 (read-out: *Endogenous WT DC50) is < 10 nM.
